From publication PMC7914897, “Cytotoxic Potential of a-Azepano- and 3-Amino-3,4-SeCo-Triterpenoids” (International Journal of Molecular Sciences, 2021)
Read-outs that look alike come from different tables or passages of the source.

Columns and labels:
[1] = tested on: NIH 3T3 (non-malignant mouse fibroblasts); experiment: SRB cytotoxicity assay, 72 h; type: cell-based; conditions: NIH 3T3, 72 h, cut-off 30 µM
Outline: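 Absorbance at 570 nm of SRB-stained cells gives % survival vs untreated controls, from which EC50 is determined. Treatment: 0–30 µM serial dilutions, 72 h, beginning 24 h post-seeding; DMSO ≤0.5%. TCA (10%) fixation, acetic acid wash.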

[2] = tested on: LOX IMVI (Melanoma); experiment: NCI-60 screen (SRB, 48 h); type: cell-based; conditions: Homo sapiens; for IC (TGI) / activity at 10 µM: 48 h; for activity at 10 µM: 1 dose 10 µM, read-out: Growth % of the Most Sensitive Cell Lines; for GI50: read-out: GI50; for CC50: read-out: LC50 (the source's name)
[3] = tested on: OVCAR-4 (Ovarian cancer); experiment: NCI-60 screen (SRB, 48 h); type: cell-based; conditions: Homo sapiens; for IC (TGI): OVCAR-4, 48 h; for GI50: read-out: GI50
[4] = tested on: Leukemia subpanel; experiment: cells; conditions: Homo sapiens; for IC (TGI): 48 h, read-out: TGI MG_MID; for GI50: read-out: GI50 MG_MID; for CC50: read-out: LC50 MG_MID
[5] = tested on: OVCAR-3 (Ovarian cancer); experiment: cells; conditions: Homo sapiens; for GI50: OVCAR-3; for IC (TGI): OVCAR-3, 48 h, read-out: TGI; for CC50: OVCAR-3, read-out: LC50
[6] = tested on: MDA-MB-468 (Breast cancer); experiment: cells; conditions: Homo sapiens; for GI50: MDA-MB-468; for IC (TGI): MDA-MB-468, 48 h, read-out: TGI; for CC50: MDA-MB-468, read-out: LC50
[7] = tested on: Colon Cancer subpanel; experiment: NCI-60 screen, subpanel; conditions: Homo sapiens; for IC (TGI): 48 h, read-out: TGI MG_MID; for GI50: read-out: GI50 MG_MID
[8] = tested on: CNS cancer subpanel; experiment: NCI-60 screen, subpanel; conditions: Homo sapiens; for IC (TGI): 48 h, read-out: TGI MG_MID; for GI50: read-out: GI50 MG_MID; for CC50: read-out: LC50 MG_MID
[9] = tested on: Melanoma subpanel; experiment: NCI-60 screen, subpanel; conditions: Homo sapiens; for IC (TGI): 48 h, read-out: TGI MG_MID; for GI50: read-out: GI50 MG_MID; for CC50: read-out: LC50 MG_MID
[10] = tested on: Breast cancer subpanel; experiment: NCI-60 screen, subpanel; conditions: Homo sapiens; for IC (TGI): 48 h, read-out: TGI MG_MID; for GI50: read-out: GI50 MG_MID; for CC50: read-out: LC50 MG_MID
[11] = tested on: MOLT-4 (Leukemia); experiment: NCI-60 screen (SRB, 48 h); conditions: Homo sapiens; for GI50: MOLT-4
[12] = tested on: NCI-H226 (NSC lung cancer); experiment: NCI-60 screen (SRB, 48 h); conditions: Homo sapiens; for GI50: NCI-H226; for IC (TGI): NCI-H226, 48 h, read-out: TGI
[13] = tested on: NCI-H322M (NSC lung cancer); experiment: NCI-60 screen (SRB, 48 h); conditions: Homo sapiens; for IC (TGI): 48 h, read-out: TGI; for CC50: read-out: LC50
[14] = tested on: NCI-H460 (NSC lung cancer); experiment: NCI-60 screen (SRB, 48 h); conditions: Homo sapiens; for GI50: NCI-H460; for IC (TGI): NCI-H460, 48 h, read-out: TGI; for CC50: NCI-H460, read-out: LC50
[15] = tested on: NCI-H522 (NSC lung cancer); experiment: NCI-60 screen (SRB, 48 h); conditions: Homo sapiens; for GI50: NCI-H522; for IC (TGI): NCI-H522, 48 h, read-out: TGI
[16] = tested on: HCC-2998 (Colon cancer); experiment: NCI-60 screen (SRB, 48 h); conditions: Homo sapiens; for GI50: HCC 2998; for IC (TGI): HCC 2998, 48 h, read-out: TGI
[17] = tested on: KM12 (Colon cancer); experiment: NCI-60 screen (SRB, 48 h); conditions: Homo sapiens; for GI50: KM12; for IC (TGI): KM12, 48 h, read-out: TGI
[18] = tested on: SNB-75 (CNS cancer); experiment: NCI-60 screen (SRB, 48 h); conditions: Homo sapiens; for GI50: SNB-75; for IC (TGI): SNB-75, 48 h, read-out: TGI; for CC50: SNB-75, read-out: LC50
[19] = tested on: UACC-257 (Melanoma); experiment: NCI-60 screen (SRB, 48 h); conditions: Homo sapiens; for GI50: UACC-257; for IC (TGI): UACC-257, 48 h, read-out: TGI; for CC50: UACC-257, read-out: LC50
[20] = tested on: 786-0 (Renal cancer); experiment: NCI-60 screen (SRB, 48 h); conditions: Homo sapiens; for GI50: 786-0; for IC (TGI): 786-0, 48 h, read-out: TGI
[21] = tested on: A498 (Renal cancer); experiment: NCI-60 screen (SRB, 48 h); conditions: Homo sapiens; for GI50: A498; for IC (TGI): A498, 48 h, read-out: TGI; for CC50: A498, read-out: LC50
[22] = tested on: MDA-MB-31/ATCC (Breast cancer); experiment: NCI-60 screen (SRB, 48 h); conditions: Homo sapiens; for IC (TGI): 48 h, read-out: TGI; for CC50: read-out: LC50
[23] = tested on: panel of approximately 60 cancer cell lines; experiment: NCI-60 screen (SRB, 48 h), full panel; conditions: for Positive Cytostatic Effect (cell lines with percent growth 0 to 50 / total) / Positive Cytotoxic Effect (cell lines with percent growth < 0 / total) / number of cancer cell lines the compound was active against: 1 dose 10 µM; for activity at 10 µM / IC (TGI) / GI50 / CC50: Homo sapiens; for activity at 10 µM / IC (TGI): 48 h; for IC (TGI): read-out: TGI MG_MID60, average over all cell lines; for CC50: read-out: LC50 MG_MID60, average over all cell lines
[24] = read-out: GI50 against all human tumor cell lines
[25] = read-out: GI50 against the most sensitive cell lines

CC1(C)CC[C@]2(CO)CC[C@]3(C)C(=CC[C@@H]4[C@@]5(C)CCCNC(C)(C)[C@@H]5CC[C@]43C)[C@@H]2C1 [Compound 3, azepanoerythrodiol]
EC50 [1]: n.s.
IC (TGI) [2]: 3.19 µM
activity at 10 µM [2]: -88.2%
GI50 [2]: 1.68 µM
CC50 [2]: 6.05 µM
IC (TGI) [3]: 17.5 µM
GI50 ([3]; OVCAR-4): 4.48 µM
CC50 ([3]; OVCAR-4, read-out: LC50 (the source's name)): 45.2 µM
IC (TGI) [4]: 54.8 µM
GI50 [4]: 2.03 µM
CC50 [4]: > 100 µM
GI50 [5]: 1.96 µM
IC (TGI) [5]: 3.84 µM
CC50 [5]: 7.52 µM
GI50 [6]: 1.79 µM
IC (TGI) [6]: 3.74 µM
CC50 [6]: 7.81 µM
IC (TGI) [7]: 3.3 µM
GI50 [7]: 1.99 µM
CC50 ([7]; read-out: LC50 MG_MID): 12.4 µM
IC (TGI) [8]: 4.13 µM
GI50 [8]: 6.53 µM
CC50 [8]: 40 µM
IC (TGI) [9]: 4.31 µM
GI50 [9]: 2.05 µM
CC50 [9]: 12.2 µM
IC (TGI) [10]: 14.6 µM
GI50 [10]: 3.12 µM
CC50 [10]: 43.6 µM
GI50 [11]: 2.5 µM
CC50 ([11]; MOLT-4, read-out: LC50): > 100 µM
GI50 [12]: 1.13 µM
IC (TGI) [12]: 28.5 µM
CC50 ([12]; NCI-H226, read-out: LC50): 71.8 µM
GI50 [13]: 3.69 µM
IC (TGI) [13]: 10.3 µM
CC50 [13]: 36 µM
GI50 [14]: 1.92 µM
IC (TGI) [14]: 3.8 µM
CC50 [14]: 7.56 µM
GI50 [15]: 2.04 µM
IC (TGI) [15]: 4.19 µM
CC50 ([15]; NCI-H522, read-out: LC50): 8.59 µM
GI50 [16]: 1.89 µM
IC (TGI) [16]: 3.81 µM
CC50 ([16]; HCC 2998, read-out: LC50): 7.69 µM
GI50 [17]: 2.07 µM
IC (TGI) [17]: 4.26 µM
CC50 ([17]; KM12, read-out: LC50): 8.78 µM
GI50 [18]: 9.84 µM
IC (TGI) [18]: 2.17 µM
CC50 [18]: 47.1 µM
GI50 [19]: 2.49 µM
IC (TGI) [19]: 6.47 µM
CC50 [19]: 27.6 µM
GI50 [20]: 2.25 µM
IC (TGI) [20]: 4.84 µM
CC50 ([20]; 786-0, read-out: LC50): 12.7 µM
GI50 [21]: 16.7 µM
IC (TGI) [21]: 38.1 µM
CC50 [21]: 86.7 µM
GI50 [22]: 3.5 µM
IC (TGI) [22]: 13 µM
CC50 [22]: 45.6 µM
Positive Cytostatic Effect (cell lines with percent growth 0 to 50 / total) [23]: 20/57
Positive Cytotoxic Effect (cell lines with percent growth < 0 / total) [23]: 19/57
number of cancer cell lines the compound was active against [23]: 30 cell lines
activity at 10 µM ([23]; read-out: Mean Growth, %): 18.9%
activity at 10 µM ([23]; read-out: Range of Growth, %): -88.4 to 89.3%
IC (TGI) [23]: 15.5 µM
GI50 ([23]; read-out: GI50 MG_MID60): 3.83 µM
GI50 [23, 24]: < 10 µM
GI50 [23, 25]: 0.2 to 0.94 µM
CC50 [23]: 32 µM
selectivity indexes at TGI level (subpanels) ([23]; MG_MID60/subpanel MG_MID): 3.59–4.69

CC(C)=C1CCC=C2CC[C@]3(C)[C@H](CC[C@@H]4[C@@]5(C)CCCNC(C)(C)[C@@H]5CC[C@]43C)[C@H]21 [Compound 9]
EC50 ([1]; Mus musculus, NIH3T3, read-out: EC50): 2.65 ± 0.5 µM
IC (TGI) [2]: 3.01 µM
activity at 10 µM [2]: -100%
GI50 [2]: 1.65 µM
CC50 [2]: 5.49 µM
IC (TGI) [3]: 3.6 µM
GI50 ([3]; OVCAR-4): 1.99 µM
IC (TGI) [4]: 3.59 µM
GI50 [4]: 1.55 µM
CC50 [4]: 7.19 µM
GI50 [5]: 1.91 µM
IC (TGI) [5]: 3.37 µM
CC50 [5]: 5.93 µM
GI50 [6]: 1.68 µM
IC (TGI) [6]: 3.3 µM
CC50 [6]: 6.5 µM
IC (TGI) [7]: 3.03 µM
GI50 [7]: 1.55 µM
IC (TGI) [8]: 3.44 µM
GI50 [8]: 1.83 µM
CC50 [8]: 6.61 µM
IC (TGI) [9]: 3.3 µM
GI50 [9]: 1.77 µM
CC50 [9]: 6.17 µM
IC (TGI) [10]: 3.49 µM
GI50 [10]: 1.72 µM
CC50 [10]: 7.06 µM
GI50 [11]: 1.59 µM
IC (TGI) ([11]; MOLT-4, 48 h, read-out: TGI): 3.7 µM
GI50 [12]: 1.79 µM
IC (TGI) [12]: 3.54 µM
GI50 [13]: 1.68 µM
IC (TGI) [13]: 3.07 µM
CC50 [13]: 5.61 µM
GI50 [14]: 1.48 µM
IC (TGI) [14]: 3.09 µM
CC50 [14]: 6.45 µM
GI50 [15]: 1.8 µM
IC (TGI) [15]: 3.44 µM
GI50 [16]: 1.74 µM
IC (TGI) [16]: 3.19 µM
GI50 [17]: 1.92 µM
IC (TGI) [17]: 3.42 µM
GI50 [18]: 1.98 µM
IC (TGI) [18]: 3.84 µM
CC50 [18]: 7.44 µM
GI50 [19]: 1.86 µM
IC (TGI) [19]: 3.63 µM
CC50 [19]: 7.09 µM
GI50 [20]: 1.71 µM
IC (TGI) [20]: 3.48 µM
GI50 [21]: 1.87 µM
IC (TGI) [21]: 3.6 µM
CC50 [21]: 6.93 µM
GI50 [22]: 1.8 µM
IC (TGI) [22]: 3.47 µM
CC50 [22]: 6.69 µM
Positive Cytostatic Effect (cell lines with percent growth 0 to 50 / total) [23]: 15/58
Positive Cytotoxic Effect (cell lines with percent growth < 0 / total) [23]: 24/58
number of cancer cell lines the compound was active against [23]: 36 cell lines
activity at 10 µM ([23]; read-out: Mean Growth, %): 13.6%
activity at 10 µM ([23]; read-out: Range of Growth, %): -100 to 107%
IC (TGI) [23]: 3.35 µM
GI50 ([23]; read-out: GI50 MG_MID60): 1.75 µM
GI50 [23, 24]: < 3 µM
GI50 [23, 25]: 0.2 to 0.94 µM
CC50 [23]: 6.43 µM
